Laboratory results: publication PMC5903829 (Experimental & Molecular Medicine, 2018)

System: Caco-2 cells
Experiment: Trans-epithelial electrical resistance in Caco-2 monolayers
Type: cell-based, human
Details: compound C 30 min pre-treatment, then LPS or LPS+AmEV

For `c1cc(-c2cnn3cc(-c4ccc(OCCN5CCCCC5)cc4)cnc23)ccn1` [compound C], the “AmEVs' ability to improve LPS-induced loss of barrier integrity (TEER) in the presence of AMPK inhibitor” value was “abolished”.
